{
  "source": "patent US20100041756A1",
  "about": "“METHOD OF MODULATING B CELL FUNCTIONING” (priority 2004, published 2010)",
  "key": {"[1]": {"tested_on": "B cells activated with LPS, anti-CD40 or anti-IgM antibody", "experiment": "B cell proliferation, 3[H]thymidine incorporation (Example 3)", "type": "cell-based, mouse", "details": "for anti-IgM induced proliferation: 12.5-100 μg/ml; for inhibition at 100 µg/mL: Mus musculus, B-cell, 100 μg/ml", "description": "FIG. 4 is a graphical representation depicting that B cell proliferation induced by LPS and anti-CD40 is inhibited by Tranilast. B-cells were activated in vitro with LPS or anti-CD40 antibody and 6.25-100 μg/ml tranilast. Proliferation was assessed using ^3[H]thymidine incorporation. LPS and anti-CD40 induced a 92- and 258-fold increase in thymidine incorporation respectively.\nFIG. 5 is a graphical representation depicting that B cell proliferation induced by LPS and anti-CD40 and anti-IgM is inhibited by tranilast. B-cells were activated in vitro with LPS or anti-CD40 antibody or anti-IgM antibody, and 12.5-100 μg/ml tranilast. Proliferation was assessed using ^3[H]thymidine incorporation. LPS, anti-CD40 and anti-IgM induced 91- and 81- and 60-fold increases in thymidine incorporation respectively.\nB cells were prepared from mouse spleen using rat anti-mouse IgM microbeads and the MACS system.\n(§1) 3 spleens were removed from male DBA/1 mice aged 8-12 weeks. A single cell suspension was prepared by cell-sieve.\nCells were cultured at 1×10^6 cells/ml in 200 μl complete RPMI with glutamine (10% FCS, 1% Pen/Strep, 50 μM 2-Mercaptoethanol, 1 mM Na-Pyruvate) in a 96-well plate for 48 h in the presence of LPS (20 μg/ml), azide-free anti-CD40 monoclonal antibody (10 μg/ml), or azide free F(ab′)2 fragment of anti-IgM monoclonal antibody (20 μg/ml) and 100-6.25 μg/ml tranilast, or vehicle (DMSO).\n1 μCi ^3[H]thymidine was added to each well and incubated overnight. Cells were harvested onto a pre-wet filter mat using a Skaton cell harvester. The filter mat was dried in a microwave for 2 minutes at 750 W. The dry filter mat was sealed in a bag using a plate sealer, and the corner cut. 10 ml scintillation fluid was placed in the bag, and spread evenly over the filter mat. The bag was re-sealed and read in a Wallac 1205 plate reader."}, "[2]": {"tested_on": "B cells activated with LPS", "experiment": "B cell proliferation, BrdU uptake detected by FACS analysis (Example 2)", "type": "cell-based", "details": "Mus musculus, LPS-induced, 100 μg/ml tranilast (FIG. 3), read-out: maximum inhibition of proliferation", "description": "FIG. 3 is a graphical representation of the inhibition of B cell proliferation by tranilast. B-cells were activated in vitro with LPS, and 1-100 μg/ml tranilast. Proliferation was assessed using BrdU uptake, detected by FACs analysis. LPS induced proliferation in 72% of cells.\nB cells were prepared for mouse spleen using rat anti-mouse IgM microbeads and the MACS system.\nas §1\nCells were cultured at 1×10^6 cells/ml in 2 ml complete RPMI with glutamine (10% FCS, 1% Pen/Strep, 50 μM 2-Mercaptoethanol, 1 mM Na-Pyruvate) for 48 h in the presence of LPS (20 μg/ml), and 100-25 μg/ml tranilast, or vehicle (DMSO).\n20 μM BrdU (Sigma) was added to each well, and incubated overnight.\nFACS analysis of staining was performed on the BD LSR Flow Cytometer."}, "[3]": {"tested_on": "inguinal lymph node cells", "experiment": "Cytokine production by draining (inguinal) lymph node cells of treated CIA mice (ELISA)", "type": "in vivo, mouse", "details": "for IL-5 production by lymph node cells: treated mice (FIG. 8)", "description": "FIG. 8 is a graphical representation depicting that mice with established CIA were treated for 10 days with 3,4-DAA or vehicle control. Mice were then killed and draining (inguinal) lymph node cells were cultured for 72 h in the absence or presence of type II collagen.\nInguinal lymph nodes were excised from Tranilast-treated and control mice. Alternatively, inguinal lymph nodes were removed from untreated arthritic mice (day 1-5 of arthritis) and Tranilast was added in vitro. In both cases, LNC were cultured in RPMI 1640 containing FCS (10% v/v), 2-mercaptoethanol (20 μM), L-glutamine (1% w/v), penicillin (100 U/ml) and streptomycin (100 μg/ml) in the presence or absence of type II collagen (50 μg/ml). Secreted cytokines (IFN-γ, IL-5, TNFα and IL-10) were measured after 72 h. by ELISA. In brief, 96 well ELISA plates were coated with the respective capture antibody, blocked with bovine serum albumin (2% w/v), and then incubated with LNC culture supernatants (neat) overnight at 4° C. After washing, bound cytokines were detected using biotinylated detect antibodies. A standard curve was generated using known concentrations of the appropriate recombinant cytokine and the concentrations of cytokines present in culture supernatants were estimated by reference to the standard curve."}, "[4]": {"tested_on": "anti-type II collagen IgG1", "experiment": "Inhibition of anti-type II collagen antibody production in vivo (Example 5)", "parameters": "species or system mouse", "description": "Female DBA/1 mice (10 weeks of age) were immunised intraperitoneally on day 1 with 100 μg bovine type II collagen, dissolved in 0.05M Tris/0.2M NaCl, pH 7.4). Tranilast was dissolved in 1% sodium bicarbonate (10 mg/ml) by heating for 1 h at 70° C. Upon cooling, an emulsion was formed. Tranilast was administered intraperitoneally for three weeks (starting on day 1) at a dose of 400 mg/kg, every 2-3 days. Controls received vehicle alone. There were six mice per group.\nOn day 28 mice were bled and serum levels of anti-type II collagen IgG1 and IgG2a were measured by ELISA, as follows:\n1. Polystyrene microtitre plates (Immulon 2, Dynatech Laboratories) were coated with DEAE-purified bovine type II collagen, dissolved in 0.2M NaCl/0.05M Tris, pH 7.4 (5 μg/ml), overnight at 4° C. 2. The plates were washed in phosphate-buffered saline (PBS), then blocked with BSA in PBS (2% w/v) for 1 h at room temperature. 3. After washing in PBS, containing Tween 20 (0.05% v/v), the sera were serially diluted in PBS/Tween, added to the plates and incubated for 2 h at room temperature. 4. After washing in PBS/Tween, bound IgG was detected by incubating goat anti-mouse IgG1 or anti-mouse IgG2a-HRP conjugate ( 1/1000) for 2 h at room temperature. 5. Develop colour reaction using TMB substrate. Stop reaction with 4.5NH2SO4 6. The plates were read at 450 nm on a microtitre plate reader."}, "[5]": {"details": "individual mice, day 28, 400 mg/kg i.p. every 2-3 days for three weeks"}},
  "note": "Where “and” joins values, the source holds several entries; their conditions need not be identical. Equal entries are not always repeated. Where two headings read alike, the source gives them in different places.",
  "data": [
    {"smiles": "COc1ccc(/C=C/C(=O)Nc2ccccc2C(=O)O)cc1OC", "note": "[Tranilast, 2-[[3-(3,4-dimethoxyphenyl)-1-oxo-2-propenyl]amino]benzoic acid]", "values": [
      {"measurement": "B cell proliferation induced by LPS or anti-CD40", "setting": "[1]; 37.5 μg/ml, FIG. 5", "value": "significantly inhibited"},
      {"measurement": "B cell proliferation induced by LPS or anti-CD40", "setting": "[1]; 100 μg/ml and 50 μg/ml, FIG. 4", "value": "significantly inhibited"},
      {"measurement": "anti-IgM induced proliferation", "setting": "[1]; FIG. 5", "value": "effective at all doses assessed"},
      {"measurement": "anti-IgM induced proliferation", "setting": "[1]; FIG. 5, listed as tranilast", "value": "all doses tested inhibited"},
      {"measurement": "inhibition at 100 µg/mL", "setting": "[1]; FIG. 4, read-out: inhibition of B cell proliferation induced by LPS", "value": 99, "unit": "%"},
      {"measurement": "inhibition at 100 µg/mL", "setting": "[1]; FIG. 4, read-out: inhibition of B cell proliferation induced by anti-CD40", "value": 97, "unit": "%"},
      {"measurement": "inhibition at 100 µg/mL", "setting": "[1]; FIG. 5, read-out: maximum inhibition of B cell proliferation (LPS)", "value": 96, "unit": "%"},
      {"measurement": "inhibition at 100 µg/mL", "setting": "[1]; FIG. 5, read-out: maximum inhibition of B cell proliferation (anti-CD40)", "value": 91, "unit": "%"},
      {"measurement": "inhibition at 100 µg/mL", "setting": "[1]; FIG. 5, read-out: maximum inhibition of B cell proliferation (anti-IgM)", "value": 98, "unit": "%"},
      {"measurement": "inhibition at 100 µg/mL", "setting": "[2]", "value": 75, "unit": "%"},
      {"measurement": "IFN-γ production by lymph node cells", "setting": "[3]; cultured 72 h, mice given 400 mg/kg for 10 days (FIG. 8)", "value": "significantly reduced"},
      {"measurement": "IL-5 production by lymph node cells", "setting": "[3]; cultured 72 h", "value": "unaffected"},
      {"measurement": "IL-5 production by lymph node cells", "setting": "[3]; cultured 72 h, listed as 3,4-DAA", "value": "significantly reduced"},
      {"measurement": "cytokine production on restimulation with collagen", "setting": "[3]; cultured 72 h in the presence of type II collagen (FIG. 8)", "value": "differences between the groups were not significant"},
      {"measurement": "Levels of anti-type II collagen IgG1", "setting": "[4]; group comparison, P=0.03, Mann Whitney test", "value": "significantly higher in the control group versus the Tranilast treated group"},
      {"measurement": "OD450 (dilution 1/100), anti-type II collagen IgG1", "setting": "[4]; [5]", "value": "0.07 and 0.06 (2×) and 0.31 and 0.08 (2×)"},
      {"measurement": "Titre (reciprocal), anti-type II collagen IgG1", "setting": "[4]; [5]", "value": "<50 (4×) and <1/50 and 150"}
    ]}
  ]
}
